Assay results: patent US20040235717A1, “Suppression of androgen receptor transactivation through new pathways to ar and ar coactivators and repressors” (priority 2001, published 2004)
Entries after “also recorded” stand apart in the source; their conditions may differ.

Key:
[1] = system: PSA mRNA expression; assay: PSA mRNA expression in LNCaP cells, Northern blot; type: cell-based
[2] = system: p21 expression; assay: p21 promoter activity (luciferase) and p21 protein expression; type: cell-based; details: PC-3 cells; 10 nM DHT
Method: (§1) 18. […] (A) Akt suppressed androgen/AR-induced p21 promoter activity. […] (B) Androgen/AR-induced PC-3(AR)6 apoptosis and p21 protein expression was blocked by Akt PC-3(AR)6 was transfected with pCDNA3, cAkt, or dAkt, as indicated, for 16 h. […] (C) AR-induced p21 protein expression was enhanced by dAkt in LNCaP cells. […] LNCaP stable transfection with dAkt was confirmed by western blot assay using phospho-Akt (Ser473) antibody. […] TPA was then added for another 24 h and cell apoptosis was determined by TUNEL assay. […] IGF-1 was added for another 30 min, followed by 10 nM TPA treatment for another 24 h. The apoptosis was determined by TUNEL assay. The data are means±s.d. from three independent experiments.

[3] = system: LNCaP cells; assay: DHT/TPA-induced apoptosis in LNCaP cells, TUNEL assay; type: cell-based; details: for LNCaP cell apoptosis, agent per se: 10 nM DHT or 1 nM TPA alone
Method: as §1
(§2) 281. The TUNEL assay was performed to measure the cell apoptosis according to the standard procedures (Oncogene Research Products). At least 200 cells were scored for each sample and the data are means±s.d. from three independent experiments.

[4] = system: IL-6 protein expression; assay: IL-6 secretion by LNCaP cells (ELISA); type: cell-based
Method: 11. […] IL-6 secretion in the medium was determined by ELISA. […] LNCaP cells, were serum starved for 24 h. […] PI3K activity was measured using PI as a substrate. The origin (ori) of the chromatogram and PI3-phosphate (PI3P) were indicated.
259. […] The IL-6 protein level in the supernatants was then evaluated by BLISA.

[5] = system: wtAR, mtARt877a, PR, VDR, ER transactivation; assay: Steroid receptor transactivation with Smad3 in DU145 cells (wtAR, mtARt877a, PR, VDR, ER); type: cell-based, human; details: for wtAR transactivation response to ligand: DHT 10 nM, HF 1 μM, E2 10 nM
[6] = system: PI3K; assay: PI3K activity assay using phosphatidylinositol as substrate; type: cell-based, human; details: LNCaP
Method: (§3) 251. IL-6's effect on PI3K activity was tested. After serum starvation for 24 h, LNCaP, PC-3 or DU145 cells were treated with 50 μg/ml IL-6 for 30 minutes. The cells were then harvested. PI3K activity was measured by using phosphatidylinositol (PT) as a substrate. […] The transactivation was measured by CAT activity.
260. […] PI3K activity was measured using PI as a substrate.
265. PI3K activity was determined as previously described. Vlahos, C. J. et al, J. Biol. Chem. 269, 5241-5148 (1994).

[7] = system: PC-3(AR)2, PC-3(AR)6, SAR-91 cells; assay: Androgen/AR-induced apoptosis, TUNEL assay in PC-3(AR)2, PC-3(AR)6 and SAR-91 cells; type: cell-based; details: HF 5 μM, IGF-1 100 ng/ml, DHT 10 nM, 3 days
Excerpt: 17. […] (A) PC-3(AR)2 and PC-3(AR)6 expressed AR protein. PC-3 cells were stably transfected with AR, followed by selection with hygromycin B, and confirmed by western blotting using AR antibody NH27, while LNCaP was used as a positive control. (B) Androgen/AR-induced apoptosis in PC-3(AR)2, PC-3(AR)6, and SAR-91 were inhibited by PI(3)K/Akt pathway. […] The data are means±s.d. from three independent experiments.
as §1, §2

[8] = system: AR transactivation; assay: AR transactivation with TSA, MMTV-LUC in PC3-AR2 cells; type: cell-based
[9] = system: Akt / AR phosphorylation; assay: Akt activation and in vivo AR phosphorylation in COS-1 cells; type: cell-based
Method: 14. […] COS-1 cells were pretreated with ethanol or 20 μM LY294002 for 30 min, followed by treatment with 100 ng/ml IGF-1 for 30 min. The total cell lysates were immunoprecipitated by anti-Akt antibody (New England Biolabs). The immunocomplex was subjected to SDS-PAGE, followed by immunoblot with phospho-Akt (S473) antibody or Akt antibody. (B) IGF-1 phosphorylates AR in vivo via Akt. COS-1 cells were cultured in [^32P]-PO4-containing medium. AR immunocomplex was subjected to SDS-PAGE followed by autoradiography. Immunobloting confirmed equivalent amounts of AR in immunocomplex. (C) cAkt, but not dAkt, phosphorylates wtAR, but not mtAR S210A and mtAR S790A in vivo. COS-1 cells were transfected with wtAR, mtAR S210A, or mtAR S790A in combination with PCDNA3 vector, cAkt, or dAkt. After 24 h transfection, cells were labeled with [^32P]-PO4 for 4 h. (D) Suppression of AR transactivation by Akt in a dose-dependent manner. […] Transactivation was measured by CAT activity using MMTV-CAT as a reporter. (E) mtAR S210A is resistant to Akt suppressive effect on AR transactivation. DU145 cells were transfected with plasmids encoding wtAR, mtAR S210A or mtAR S790A in presence of cAkt or dAkt for 24 h. Ligand treatment and AR transactivation were performed as previously described. The data are means±s.d. from three independent experiments.
282. […]

[10] = system: AR transactivation; assay: AR transactivation, MMTV-CAT reporter in DU145 cells transfected with AR; type: cell-based, human
Excerpt: 250. To dissect the divergent effects of IL-6 in prostate tumor growth, Qui, Y. et al., Nature 393, 83-85 (1998); Hobisch, A. et al., Cancer Res. 58, 4640-4645 (1998); Ritchie, C. K. et al., Endocrinology 138, 1145-1150 (1997), the potential influences of IL-6 on the transactivation of AR, the master regulator of the prostate tumor growth were studied. Chang, C. et al., Science 240, 324.326 (1988); Chang, C. et al., Crit. Rev. Eukaryotic Gene Expression 5, 97-125 (1995). Because IL-6 has two major signal cascades, mitogen-activated protein kinase (MAPK) and phosphatidylinositol 3-kinase (PI3K), Qui, Y. et al., Nature 393, 83-85 (1998); Qui, Y. et al., Proc. Natl. Acad. Sci. USA 95, 3644-3649 (1998), inhibitors were applied to specifically block one of these two IL-6 signal pathways. DU145 cells were transfected for 24 h with AR and MMTV-CAT reporter gene. After transfection, the cells were serum starved for 24 h. Next, 20 μM LY294002, P098059 or vehicle was added to serum-free medium 30 min prior to IL-6 treatment. […] The cells were then harvested and AR transactivation was measured by CAT activity. […] Vlahos, C. J. et al., J. Biol. Chem. 269, 5241-5148 (1994). […] Alessi, D. R. et al., J. Biol. Chem. 270, 27489-27494 (1995).
as §3
252. Focus then turned to the two major downstream effectors of PI3K: a serine/threonine kinase (Akt/PKB) and a ribosomal S6 kinase (p70S6k). Franke, T. F. et al., Cell 88,435-437 (1997). […] The transactivation activity was determined after 24 h transfection.
262. The DU145 and PC-3 cells were maintained in Dulbecco's Minimum Essential Medium (DMEM) containing penicillin (25 μg/m1), streptomycin (25 μg/ml), and 5% fetal calf serum (FCS). The LNCaP cells were maintained in RPMI-1640 with 10% FCS. Transfections were performed using the calcium phosphate precipitation method, as previously described. Yeh, S. et al., Proc. Natl. Acad. Sci. USA 93, 5517-5521(1996).
277. The DU145 and PC-3 cells were maintained in Dulbecco's Minimum Essential Medium (DMEM) containing penicillin (25 U/ml), streptomycin (25 μg/ml), and 5% fetal calf serum (FCS). The LNCaP cells were maintained in RPMI-1640-10% FCS. Transfections were performed using the calcium phosphate precipitation method in PC-3 and DU145, as previously described. Yeh, S., Lin, H. K., Kang, H. Y., Thin, T. H., Lin, M. F. & Chang, C. (1999) Proc Natl Acad Sci U S A 96, 5458-63. LNCaP cells were transfected using SuperFect™ according to standard procedures (Qiagen).

[11] = system: AR protein levels; assay: AR protein (Western blot) and AR mRNA (Northern blot) levels; type: cell-based; details: LNCaP, transfected
[12] = system: AR transactivation; assay: AR transactivation, MMTV-luc / (ARE)4-luc luciferase reporter assay; type: cell-based; details: LNCaP MMTV-luc and CWR22 (ARE)4-luc

C[C@]12CCC(=O)C[C@@H]1CC[C@@H]1[C@@H]2CC[C@]2(C)[C@@H](O)CC[C@@H]12 [DHT, 5α-dihydrotestosterone, reference compound]
PSA mRNA expression ([1]; 10 nM DHT): induced PSA mRNA expression; also recorded: increases PSA mRNA expression
p21 promoter activity [2]: induce p21 promoter activity
LNCaP cell apoptosis, agent per se [3]: only marginal effects on apoptosis
IL-6 protein expression ([4]; 0, 1, 10 or 50 nM DHT 24 h, then 160 nM PMA 24 h): reduced by DHT in a dose-dependant manner
wtAR transactivation response to ligand [5]: responded well
IL-6-induced PI3K activity ([6]; DHT and IL-6 for 30 min): repress PI3K activity significantly

CC(C)(O)C(=O)Nc1ccc([N+](=O)[O-])c(C(F)(F)F)c1 [HF, hydroxyflutamide]
Effect on Smad3-enhanced PSA induction [1]: partially repressed
Effect on androgen-induced apoptosis [7]: inhibition of androgen-induced apoptosis
Effect on DHT/TPA-induced apoptosis ([3]; LNCaP parent cells): repress this DHT/TPA-mediated apoptosis
Effect on DHT repression of IL-6 protein expression [4]: reverse this induction
mtARt877a transactivation response to ligand [5]: responded much better
wtAR transactivation response to ligand [5]: respond marginally

CCCC(=O)[O-].[Na+] [NaB]
Effect on Smad3/Smad4-suppressed AR transactivation [8]: reverse Smad3/Smad4-repressed AR transactivation

CCCCCCCCCCCCCC(=O)O[C@@H]1[C@@H](C)[C@@]2(O)[C@@H](C=C(CO)C[C@]3(O)C(=O)C(C)=C[C@@H]23)[C@H]2C(C)(C)[C@]12OC(C)=O [TPA, 12-0-tetradecanoyl phorbol-13-acetate]
LNCaP cell apoptosis, agent per se [3]: only marginal effects on apoptosis

IGF-1: insulin-like growth factor-1
Effect on androgen-induced apoptosis [7]: repress androgen-induced apoptosis
Effect on DHT/TPA-induced apoptosis ([3]; LNCaP cells stably transfected with dAkt): only marginal suppressive effects
Effect on DHT/TPA-induced apoptosis ([3]; LNCaP parent cells): partially repressed DHT/TPA-induced apoptosis
Akt activation (phospho-Akt S473) ([9]; 100 ng/ml IGF-1 30 min): Activation of Akt
AR phosphorylation in vivo ([9]; [32P] labeling): strongly induced AR phosphorylation

IL-6: a pleiotropic cytokine
PI3K activity ([6]; PC-3, DU145 cells, 50 μg/ml IL-6 for 30 min): increase PI3K activity
Effect of IL-6 on AR transactivation (CAT activity) ([10]; MAPK pathway inhibited by 20 μM P098059 30 min prior to IL-6): repress AR transactivation
Effect of IL-6 on AR transactivation (CAT activity) ([10]; PI3K pathway inhibited by 20 μM LY294002 30 min prior to IL-6): enhance AR transactivation
Effect of IL-6 on AR transactivation (CAT activity) ([10]; none of the MAPK and PI3K pathways blocked, DHT 24 h): very limited effect

PTEN-PTP: PTEN peptide (aa, 110-163) containing the phosphatase domain (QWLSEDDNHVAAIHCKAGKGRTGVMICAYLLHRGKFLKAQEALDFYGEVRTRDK; left off: a dimerising Fc or GST)
AR degradation [11]: promote AR degradation
Effect on AR transactivation [12]: suppress of AR transactivation
